US20170100374A1, “POTENTIATOR-CORRECTOR COMBINATIONS USEFUL IN THE TREATMENT OF CYSTIC FIBROSIS” (AbbVie S.à.r.l., priority 2015, published 2017)

Tests used:
[1] = target: T1, HEK293 wild type CFTR membrane fractions (Homo sapiens, UniProt P13569); assay: Back-Scattering Interferometry (Molecular Sensing) binding to CFTR membrane fractions
T1 construct: expressed in transfected cells; host or cells: HEK293 (membrane fractions)
Description: TruBind™ Back-Scattering Interferometry (BSI) (Molecular Sensing GmbH) can be used to determine binding constants of different compounds to CFTR-expressing cells.
HEK293 wild type CFTR and HEK293 control membrane fractions are used as 100 μg (total protein amount) aliquots in 50 mM Tris-HCl pH 7.5, 1 mM EDTA, 10% Glycerol+PIC and stored at −80° C.
The buffer used for the assays is 50 mM Tris-HCl pH 7.5, 1 mM EDTA with 1.2% DMSO. The refractive index of the assay buffer and the compound are matched and then a 2x serial dilution is done in polypropylene dilution reservoirs.
A thawed aliquot of HEK293.CFTRwt as well as a thawed aliquot of HEK293 control membrane fractions is diluted to 10 mL in 50 mM Tris-HCl pH 7.5, 1 mM EDTA with 1.2% DMSO. The refractive index of the assay buffer and the two membrane fractions are matched by adding water to the membrane fractions.
Compound and target are mixed 1:1 in 96-well PCR microtiter plates to a final volume of 150 μL and heat sealed with foil. The assays are allowed to incubate at room temperature for 4 hours before being run on the BSI instrument. Wells are pierced individually prior to sample injection and measurement of BSI signal (each well is analyzed in quadruplicates). […]
The final data for the difference curve is exported to Graphpad Prism® and analyzed using a one-site binding equation to determine a Kd for the assay. […]

CFTR = conditions: patients with CF (Wilschanski et al., 2003); cited from earlier work
F508del-CFTR = target: T2, F508del-CFTR (Homo sapiens, UniProt P13569, DEL508-508); conditions: patients having F508del-CFTR class II mutation (Flume et al., 2012); cited from earlier work
T2 construct: host or cells: CF patients
T2 sequence (P13569 with tags, fused parts or gaps DEL508-508): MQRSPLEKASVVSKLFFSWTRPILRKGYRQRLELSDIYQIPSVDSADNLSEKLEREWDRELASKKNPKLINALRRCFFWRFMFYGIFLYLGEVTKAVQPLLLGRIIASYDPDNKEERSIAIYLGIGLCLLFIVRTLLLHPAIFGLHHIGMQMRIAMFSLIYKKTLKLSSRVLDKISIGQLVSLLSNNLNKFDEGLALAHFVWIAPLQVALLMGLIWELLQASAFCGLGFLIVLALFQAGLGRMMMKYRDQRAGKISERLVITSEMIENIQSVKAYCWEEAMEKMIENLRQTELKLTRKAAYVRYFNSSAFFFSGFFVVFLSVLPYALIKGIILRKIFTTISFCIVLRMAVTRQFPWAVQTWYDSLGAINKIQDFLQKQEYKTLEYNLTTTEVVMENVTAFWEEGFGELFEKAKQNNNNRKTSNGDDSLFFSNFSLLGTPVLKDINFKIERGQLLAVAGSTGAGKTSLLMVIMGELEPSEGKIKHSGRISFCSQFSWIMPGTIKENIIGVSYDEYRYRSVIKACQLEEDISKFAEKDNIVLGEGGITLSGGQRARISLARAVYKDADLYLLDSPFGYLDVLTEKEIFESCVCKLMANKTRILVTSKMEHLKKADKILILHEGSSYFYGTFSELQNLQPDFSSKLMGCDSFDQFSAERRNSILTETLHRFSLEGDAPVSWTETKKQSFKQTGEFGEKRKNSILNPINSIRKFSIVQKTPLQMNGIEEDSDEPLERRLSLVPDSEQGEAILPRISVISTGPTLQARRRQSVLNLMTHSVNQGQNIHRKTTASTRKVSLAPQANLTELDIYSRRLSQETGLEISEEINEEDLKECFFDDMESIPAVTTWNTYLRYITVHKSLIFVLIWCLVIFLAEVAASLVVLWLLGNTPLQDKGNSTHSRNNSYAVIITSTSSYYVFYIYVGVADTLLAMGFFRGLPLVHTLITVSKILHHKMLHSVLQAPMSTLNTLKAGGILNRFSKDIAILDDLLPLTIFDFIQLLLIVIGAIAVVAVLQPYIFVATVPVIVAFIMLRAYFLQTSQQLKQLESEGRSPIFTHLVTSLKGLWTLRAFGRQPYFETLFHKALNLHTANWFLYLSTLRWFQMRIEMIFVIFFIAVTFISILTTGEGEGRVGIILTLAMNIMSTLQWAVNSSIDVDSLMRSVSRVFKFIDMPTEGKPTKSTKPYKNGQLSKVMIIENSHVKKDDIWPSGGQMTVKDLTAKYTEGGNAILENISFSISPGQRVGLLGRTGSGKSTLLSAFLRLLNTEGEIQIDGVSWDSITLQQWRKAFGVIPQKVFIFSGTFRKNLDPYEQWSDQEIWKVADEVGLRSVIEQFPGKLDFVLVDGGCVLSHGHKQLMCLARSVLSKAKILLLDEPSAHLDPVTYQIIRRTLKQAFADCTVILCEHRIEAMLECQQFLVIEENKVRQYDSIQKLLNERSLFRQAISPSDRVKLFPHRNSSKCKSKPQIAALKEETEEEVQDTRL

T1 sequence (P13569 whole entry): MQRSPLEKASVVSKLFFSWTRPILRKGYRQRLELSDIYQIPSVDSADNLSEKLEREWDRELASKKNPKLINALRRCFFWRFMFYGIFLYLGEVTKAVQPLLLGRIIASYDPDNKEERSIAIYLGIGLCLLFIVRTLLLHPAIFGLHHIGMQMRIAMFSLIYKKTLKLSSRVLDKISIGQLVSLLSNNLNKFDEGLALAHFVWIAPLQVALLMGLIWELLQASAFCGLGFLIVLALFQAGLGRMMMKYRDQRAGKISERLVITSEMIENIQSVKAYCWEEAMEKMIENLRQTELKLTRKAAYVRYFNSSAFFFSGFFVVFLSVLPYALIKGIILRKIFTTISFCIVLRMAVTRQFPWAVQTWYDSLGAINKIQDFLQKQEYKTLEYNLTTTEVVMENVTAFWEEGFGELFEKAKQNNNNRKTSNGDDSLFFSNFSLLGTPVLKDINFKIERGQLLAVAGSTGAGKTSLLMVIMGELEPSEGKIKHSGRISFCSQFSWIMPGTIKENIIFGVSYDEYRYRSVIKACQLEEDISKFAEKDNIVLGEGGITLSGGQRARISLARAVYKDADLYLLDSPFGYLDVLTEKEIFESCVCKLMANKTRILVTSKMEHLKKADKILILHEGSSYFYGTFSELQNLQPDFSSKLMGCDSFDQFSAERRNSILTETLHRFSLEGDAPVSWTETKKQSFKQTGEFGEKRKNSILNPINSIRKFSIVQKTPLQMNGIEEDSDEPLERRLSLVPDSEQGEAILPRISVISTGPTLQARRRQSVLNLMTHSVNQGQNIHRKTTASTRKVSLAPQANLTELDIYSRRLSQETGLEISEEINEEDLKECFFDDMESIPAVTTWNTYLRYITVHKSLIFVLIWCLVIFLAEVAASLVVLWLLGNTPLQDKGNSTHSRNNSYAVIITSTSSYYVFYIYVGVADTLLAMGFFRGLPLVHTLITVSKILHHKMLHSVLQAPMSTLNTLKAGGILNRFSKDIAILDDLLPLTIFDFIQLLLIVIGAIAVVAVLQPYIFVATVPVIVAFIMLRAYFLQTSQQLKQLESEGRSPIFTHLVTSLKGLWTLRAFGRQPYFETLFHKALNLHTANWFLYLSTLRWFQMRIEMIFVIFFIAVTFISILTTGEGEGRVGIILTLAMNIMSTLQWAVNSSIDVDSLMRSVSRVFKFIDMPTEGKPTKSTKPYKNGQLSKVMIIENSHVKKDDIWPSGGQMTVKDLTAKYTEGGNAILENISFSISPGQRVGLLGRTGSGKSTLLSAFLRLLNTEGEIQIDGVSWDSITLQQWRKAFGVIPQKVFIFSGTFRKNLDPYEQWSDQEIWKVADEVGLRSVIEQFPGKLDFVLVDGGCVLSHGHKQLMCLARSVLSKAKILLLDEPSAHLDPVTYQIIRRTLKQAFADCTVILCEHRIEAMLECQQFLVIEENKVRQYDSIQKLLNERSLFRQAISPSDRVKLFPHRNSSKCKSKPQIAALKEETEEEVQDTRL

In the case of COc1ccc2c(c1)O[C@@H](c1ccc(C(=O)O)cc1)C[C@H]2NC(=O)C1(c2ccc3c(c2)OC(F)(F)O3)CC1 [C1], the Kd ([1]; binding to wild-type CFTR membrane fractions, control membrane fractions subtracted, one-site binding fit) is reported as 94.7 ± 26.5 nM and the “binding affinity to the membrane fraction of CFTR (in words)” value ([1]; comment on Table 1) is reported as “binding affinity similar to the known correctors acting on CFTR”.

For gentamicin, the “change in Nasal Potential Difference (NPD) values” (CFTR) is given as “small changes”.

In the case of CC(C)(C)c1cc(C(C)(C)C)c(NC(=O)c2c[nH]c3ccccc3c2=O)cc1O [VX-770], the “therapeutic efficacy in patients” value (F508del-CFTR) is given as “no significant therapeutic efficacy”.
